Tested on: Wnt signaling
Assay: TopFlash reporter gene bioassay in SW480 cells
Assay type: cell-based
Details: Homo sapiens, SW480, 24 h, SW480 cells, 24 hours treatment, luciferase assay; read-out: IC50 for SW480 cells, TopFlash reporter gene bioassay

IC50 [µM]	Structure (SMILES)
0.73 ± 0.08	C=CCN1CC(=O)N2[C@@H](Cc3ccc(O)cc3)C(=O)N(Cc3cccc(Br)c3)C[C@@H]2N1C(=O)NCc1ccccc1 [Compound F]

Same assay, conditions: Homo sapiens, SW480, TopFlash reporter gene assay, inhibition of Wnt signaling; read-out: RGA, IC50 (μM) TopF

IC50 [µM]	Structure (SMILES)
0.67 ± 0.09	C=CCN1CC(=O)N2[C@@H](Cc3ccc(O)cc3)C(=O)N(Cc3csc4cc(NC(=O)OC)ccc34)C[C@@H]2N1C(=O)NCc1ccccc1 [compound 45]
1.03 ± 0.11	C=CCN1CC(=O)N2[C@@H](Cc3ccc(O)cc3)C(=O)N(Cc3cccc(C(C)(C)C)c3OC)C[C@@H]2N1C(=O)NCc1ccccc1 [compound 89]
0.52 ± 0.09	C=CCN1CC(=O)N2[C@@H](Cc3ccc(O)cc3)C(=O)N(Cc3cccc4c(-c5ccccc5)cn(S(=O)(=O)c5ccccc5)c34)C[C@@H]2N1C(=O)NCc1ccccc1 [compound 27]
14.4 ± 2.77	C=CCN1CC(=O)N2[C@@H](Cc3ccc(O)cc3)C(=O)N(Cc3cccc(OC)c3OS(=O)(=O)CCCCCCCC)C[C@@H]2N1C(=O)NCc1ccccc1 [compound 161]
1.77 ± 0.15	C=CCN1CC(=O)N2[C@@H](Cc3ccc(O)cc3)C(=O)N(Cc3cccc(C(=O)NCCCOCCCC)c3)C[C@@H]2N1C(=O)NCc1ccccc1 [compound 135]
2.36 ± 0.57	C=CCN1CC(=O)N2[C@@H](Cc3ccc(O)cc3)C(=O)N(Cc3ccc(OC)c(OC)c3)C[C@@H]2N1C(=O)NCc1ccccc1 [compound 175]
0.72 ± 0.075	C=CCN1CC(=O)N2[C@@H](Cc3ccc(NC=O)cc3)C(=O)N(Cc3cccc4scnc34)C[C@@H]2N1C(=O)NCc1ccccc1 [compound 50]
2.56 ± 0.29	C#Cc1ccc(CNC(=O)N2[C@H]3CN(Cc4cccc(OC)c4OC)C(=O)[C@H](Cc4ccc(O)cc4)N3C(=O)CN2CC=C)cc1 [compound 184]
2.37 ± 0.35	C=CCN1CC(=O)N2[C@@H](Cc3ccc(O)cc3)C(=O)N(Cc3cccc(Br)n3)C[C@@H]2N1C(=O)NCc1ccccc1 [compound 177]
3.57 ± 0.89	C=CCN1CC(=O)N2[C@@H](Cc3ccc(O)cc3)C(=O)N(Cc3cccc(C(=O)NNC(=O)OC(C)(C)C)c3)C[C@@H]2N1C(=O)NCc1ccccc1 [compound 210]
0.84 ± 0.09	C=CCN1CC(=O)N2[C@@H](Cc3ccc(O)cc3)C(=O)N(Cc3csc4cc(NCCC)ccc34)C[C@@H]2N1C(=O)NCc1ccccc1 [compound 66]
0.084 ± 0.016	C=CCN1CC(=O)N2[C@@H](Cc3ccc(O)cc3)C(=O)N(Cc3cccc4c(C(C)=O)cn(S(=O)(=O)c5ccc(C)cc5)c34)C[C@@H]2N1C(=O)NCc1ccccc1 [compound 2]
7.17 ± 1.33	C=CCN1CC(=O)N2[C@@H](Cc3ccc(O)cc3)C(=O)N(Cc3ccc(F)c4scnc34)C[C@@H]2N1C(=O)NCc1ccc(C#N)cc1 [compound 255]
3.61 ± 0.47	C=CCN1CC(=O)N2[C@@H](Cc3ccc(O)cc3)C(=O)N(Cc3cn(S(=O)(=O)c4ccc(C)cc4)c4ccccc34)C[C@@H]2N1C(=O)NCc1ccccc1 [compound 211]
1.99 ± 0.12	C=CCN1CC(=O)N2[C@@H](Cc3ccc(O)cc3)C(=O)N(Cc3cccc(Oc4ccccc4)c3)C[C@@H]2N1C(=O)NCc1ccccc1 [compound 146]
1.01 ± 0.24	C=CCN1CC(=O)N2[C@@H](Cc3ccc(O)cc3)C(=O)N(Cc3cccc4c(=O)ccoc34)C[C@@H]2N1C(=O)NCc1ccccc1 [compound 87]
1.66 ± 0.27	C=CCN1CC(=O)N2[C@@H](Cc3ccc(O)cc3)C(=O)N(Cc3cccc(C(=O)OC)c3[N+](=O)[O-])C[C@@H]2N1C(=O)NCc1ccccc1 [compound 131]
1.61 ± 0.31	C=CCN1CC(=O)N2[C@@H](Cc3ccc(O)cc3)C(=O)N(Cc3cccc(-c4ccccc4OC)c3)C[C@@H]2N1C(=O)NCc1ccccc1 [compound 127]
0.098 ± 0.014	C=CCN1CC(=O)N2[C@@H](Cc3ccc(O)cc3)C(=O)N(Cc3cccc4c(C(C)=O)c[nH]c34)C[C@@H]2N1C(=O)NCc1ccccc1 [compound 3]
1.96 ± 0.27	C=CCOc1ccccc1CN1C[C@H]2N(C(=O)CN(CC=C)N2C(=O)NCc2ccccc2)[C@@H](Cc2ccc(O)cc2)C1=O [compound 145]
28.8 ± 5.69	C=CCN1CC(=O)N2[C@@H](Cc3ccc(O)cc3)C(=O)N(Cc3csc4cc(NS(N)(=O)=O)ccc34)C[C@@H]2N1C(=O)NCc1ccccc1 [compound 202]
7.26 ± 1.3	C=CCN1CC(=O)N2[C@@H](Cc3ccc(O)cc3)C(=O)N(Cc3cccnc3-c3cccc(C#N)c3)C[C@@H]2N1C(=O)NCc1ccccc1 [compound 257]
7.2 ± 1.06	C=CCN1CC(=O)N2[C@@H](Cc3ccc(O)cc3)C(=O)N(Cc3cccc(C(=O)NCCO)c3)C[C@@H]2N1C(=O)NCc1ccccc1 [compound 256]
49.8 ± 4.8	C=CCN1CC(=O)N2[C@@H](Cc3ccc(O)cc3)C(=O)N(Cc3ccc(F)c4scnc34)C[C@@H]2N1C(=O)NCC1CCCCC1 [compound 238]
0.67 ± 0.05	C#Cc1ccc(CNC(=O)N2[C@H]3CN(Cc4ccc(F)c5scnc45)C(=O)[C@H](Cc4ccc(O)cc4)N3C(=O)CN2CC=C)cc1 [compound 44]

IC50 [µM]	Structure (SMILES)
4.51 ± 0.72	C=CCN1CC(=O)N2[C@@H](Cc3ccc(O)cc3)C(=O)N(Cc3ccc4ncoc4c3)C[C@@H]2N1C(=O)NCc1ccccc1 [compound 228]
0.79 ± 0.1	C=CCN1CC(=O)N2[C@@H](Cc3ccc(O)cc3)C(=O)N(Cc3cccc(-c4cccc(C(N)=O)c4)c3)C[C@@H]2N1C(=O)NCc1ccccc1 [compound 60]
4.3 ± 0.67	C=CCN1CC(=O)N2[C@@H](Cc3ccc(O)cc3)C(=O)N(Cc3cccc(NC(N)=O)c3)C[C@@H]2N1C(=O)NCc1ccccc1 [compound 225]
1.41 ± 0.21	C=CCN1CC(=O)N2[C@@H](Cc3ccc(O)cc3)C(=O)N(Cc3csc4cc(NC=O)ccc34)C[C@@H]2N1C(=O)NCc1ccccc1 [compound 111]
1.51 ± 0.16	C=CCN1CC(=O)N2[C@@H](Cc3ccc(O)cc3)C(=O)N(Cc3cccc(C(=O)O)c3)C[C@@H]2N1C(=O)NCc1ccc(Cl)cc1Cl [compound 119]
1.28 ± 0.1	C=CCN1CC(=O)N2[C@@H](Cc3ccc(O)cc3)C(=O)N(Cc3cccc(C(=O)NCC4CCCO4)c3)C[C@@H]2N1C(=O)NCc1ccccc1 (stereo partly shown) [compound 106]
1.17 ± 0.15	C=CCN1CC(=O)N2[C@@H](Cc3ccc(O)cc3)C(=O)N(Cc3cccc(-c4cccnc4OC)c3)C[C@@H]2N1C(=O)NCc1ccccc1 [compound 98]
10.8 ± 1.97	C=CCN1CC(=O)N2[C@@H](Cc3ccc(O)cc3)C(=O)N(Cc3ccnc(C(N)=O)c3)C[C@@H]2N1C(=O)NCc1ccccc1 [compound 153]
2.42 ± 0.32	C=CCN1CC(=O)N2C(CN(Cc3cccc(-c4ccc(SC)cc4)n3)C(=O)[C@@H]2Cc2ccc(O)cc2)N1C(=O)NCc1ccccc1 (stereo partly shown) [compound 179]
0.45 ± 0.05	C=CCN1CC(=O)N2[C@@H](Cc3ccc(O)cc3)C(=O)N(Cc3csc4ccc(F)cc34)C[C@@H]2N1C(=O)NCc1ccccc1 [compound 21]
0.7 ± 0.26	C=CCN1CC(=O)N2[C@@H](Cc3ccc(O)cc3)C(=O)N(Cc3cccc(C(=O)NC)n3)C[C@@H]2N1C(=O)NCc1ccccc1 [compound 48]
20.9 ± 3.94	C=CCN1CC(=O)N2[C@@H](Cc3ccc(O)cc3)C(=O)N(Cc3csc4ccc(NC(N)=O)cc34)C[C@@H]2N1C(=O)NCc1ccccc1 [compound 195]
0.39 ± 0.05	C=CCN1CC(=O)N2[C@@H](Cc3ccc(O)cc3)C(=O)N(Cc3ccc(F)c(Br)c3)C[C@@H]2N1C(=O)NCc1ccccc1 [compound 16]
0.69 ± 0.15	C=CCN1CC(=O)N2[C@@H](Cc3ccc(O)cc3)C(=O)N(Cc3cccc(C(=O)OC)c3)C[C@@H]2N1C(=O)NCc1ccccc1 [compound 46]
1.07 ± 0.2	C=CCN1CC(=O)N2[C@@H](Cc3ccc(O)cc3)C(=O)N(Cc3cccc4c3nc(C(F)(F)F)n4C)C[C@@H]2N1C(=O)NCc1ccccc1 [compound 93]
1.94 ± 0.48	C=CCN1CC(=O)N2[C@@H](Cc3ccc(O)cc3)C(=O)N(Cc3cccc(-c4ccccc4)c3)C[C@@H]2N1C(=O)NCc1ccccc1 [compound 144]
1.42 ± 0.51	C=CCN1CC(=O)N2[C@@H](Cc3ccc(O)cc3)C(=O)N(Cc3cccc(C(=O)N4CCCCC4)c3)C[C@@H]2N1C(=O)NCc1ccccc1 [compound 114]
1.55 ± 0.21	C=CCOc1ccc(CN2C[C@H]3N(C(=O)CN(CC=C)N3C(=O)NCc3ccccc3)[C@@H](Cc3ccc(O)cc3)C2=O)cc1 [compound 123]
2.33 ± 0.64	C=CCN1CC(=O)N2[C@@H](Cc3ccc(O)cc3)C(=O)N(Cc3ccc4ccn(S(=O)(=O)c5ccc(C)cc5)c4c3)C[C@@H]2N1C(=O)NCc1ccccc1 [compound 174]
14.2 ± 2.05	C=CCN1CC(=O)N2[C@@H](Cc3ccc(O)cc3)C(=O)N(Cc3cccc(C(=O)NN)c3)C[C@@H]2N1C(=O)NCc1ccccc1 [compound 160]
1.61 ± 0.59	C=CCN1CC(=O)N2[C@@H](Cc3ccc(O)cc3)C(=O)N(Cc3ccccc3N(C)Cc3ccccc3)C[C@@H]2N1C(=O)NCc1ccccc1 [compound 128]
0.9 ± 0.27	C=CCN1CC(=O)N2[C@@H](Cc3ccc(O)cc3)C(=O)N(Cc3cccc(C(C)=O)c3)C[C@@H]2N1C(=O)NCc1ccccc1 [compound 73]
1.89 ± 0.38	C=CCN1CC(=O)N2[C@@H](Cc3ccc(O)cc3)C(=O)N(Cc3cccc(OC)c3OC3CCCC3)C[C@@H]2N1C(=O)NCc1ccccc1 [compound 139]
4.78 ± 0.69	C=CCN1CC(=O)N2[C@@H](Cc3ccc(OS(N)(=O)=O)cc3)C(=O)N(Cc3cccc(C(N)=O)c3)C[C@@H]2N1C(=O)NCc1ccccc1 [compound 229]
22.2 ± 5.69	C=CCN1CC(=O)N2[C@@H](Cc3ccc(O)cc3)C(=O)N(Cc3cccnc3-c3cccnc3)C[C@@H]2N1C(=O)NCc1ccccc1 [compound 198]

Same assay, conditions: Homo sapiens, SW480; read-out: RGA, IC50 (μM) TopF

Structure (SMILES)	IC50 [µM]
C=CCN1CC(=O)N2[C@@H](Cc3ccc(OP(=O)(O)O)cc3)C(=O)N(Cc3csc4cc(N)ccc34)C[C@@H]2N1C(=O)NCc1ccccc1 [compound 24]	0.48 ± 0.11
C=CCN1CC(=O)N2[C@@H](Cc3ccc(O)cc3)C(=O)N(Cc3cccc(C(=O)NCCC)c3)C[C@@H]2N1C(=O)NCc1ccccc1 [compound 9]	0.3 ± 0.02
C=CCN1CC(=O)N2C(Cc3ccc(OP(=O)(O)O)cc3)C(=O)N(Cc3cccc4sc(N)nc34)C[C@@H]2N1C(=O)NCc1ccccc1 (stereo partly shown) [compound 14]	0.37 ± 0.07
C=CCN1CC(=O)N2[C@@H](Cc3ccc(OP(=O)(O)O)cc3)C(=O)N(Cc3cccc4c3oc3ccccc34)C[C@@H]2N1C(=O)NCc1ccccc1 [compound 13]	0.36 ± 0.13
